Assay results reported in publication PMC9138994 (Biomolecules, 2022).
Where “and” joins values, the source holds several entries; their conditions need not be identical. Identical values can stand only once. Marks after values point to notes of the source that are not given here.

Experiments:
[1] = system: D3R; design: method as in earlier work; conditions: ref 19 (Vanover et al.); cited from earlier work
[2] = system: D1R; design: method as in earlier work; conditions: ref 19 (Vanover et al.); cited from earlier work
[3] = system: H1R; design: method as in earlier work; conditions: ref 19 (Vanover et al.); cited from earlier work
[4] = biological target: T1, hH1R (Homo sapiens, UniProt P35367); assay: [3H]-pyrilamine displacement assay at histamine H1R (CHO-K1 cells); type: binding; conditions: CHO-K1 cells stably expressing human H1R; [3H]-pyrilamin; read-out: Ki (n), H1R
T1 construct: expressed in transfected cells; host or cells: CHO-K1
Protocol: To determine the human H1R affinity, compounds and reference substances were tested in a [^3H]-pyrilamine displacement assay. The assay was conducted with membrane preparations of CHO-K1 cells stably expressing hH1R. Transfection, cell culture, and membrane preparation were described in detail by Smit and colleagues. For the competition binding assay, membrane fractions (40 μg/well in a final volume of 0.2 mL binding buffer) were incubated with [^3H]-pyrilamine (1 nM) and the test compounds in different concentrations for 120 min at r.t. under shaking. The experimental assays were carried out in triplicate with at least six appropriate concentrations between 0.1 nM and 100 μM for the test compounds. Nonspecific binding was evaluated in the presence of the standard H1R antagonist chlorpheniramine hydrogen maleate at a concentration of 10 µM. The following steps were performed as described before.

[5] = biological target: T2, hD3R (Homo sapiens, UniProt P35462); assay: Radioligand displacement assay at dopamine D3R ([3H]-spiperone, CHO-K1 cells); type: binding; conditions: CHO-K1 cells stably expressing human D3R, read-out: Ki (n), D3R
T2 construct: expressed in transfected cells; host or cells: CHO-K1
Protocol: To determine the human D3R affinity, compounds and reference substances were tested in a [^3H]-spiperone competition binding assay as described by Bautista-Aguilera et al.. The assay was conducted with membrane preparations of CHO-K1 cells stably expressing hD3R. Membrane fractions (20 μg/well in a final volume of 0.2 mL binding buffer) were incubated with [^3H]-spiperone (0.2 nM) and the test compounds for 120 min at r.t. under shaking. Assays were run in triplicates with at least six appropriate concentrations between 0.1 nM and 100 µM for the test compound. Nonspecific binding was determined in the presence of 10 µM haloperidol.

[6] = biological target: T3, hD1R (Homo sapiens, UniProt P21728); assay: Radioligand displacement assay at dopamine D1R ([3H]-SCH23390, HEK293 cells); type: binding; conditions: HEK293 cells stably expressing human D1R, read-out: Ki (n), D1R
T3 construct: expressed in transfected cells; host or cells: HEK293
Protocol: hD1R affinity was determined according to the procedure of hD3R [43]. Membrane preparations of HEK293 cells stably expressing the hD1R were used with 20 µg/well. [^3H]-SCH23390 was used as radioligand in a concentration of 0.3 nM. Nonspecific binding was determined in the presence of 100 µM fluphenazine. The following steps were performed as describedbefore.

[7] = biological target: T4, hH4R (Homo sapiens, UniProt P04899+Q9H3N8); assay: [3H]-histamine competition binding assay at histamine H4R (Sf9 membranes); conditions: Sf9 cell membranes expressing human H4R with Gαi2 and Gβ1γ2, read-out: Ki (n), H4R
T4 construct: expressed in transfected cells; host or cells: Sf9 insect cells
Protocol: To determine the human H4R affinity, compounds and reference structures were examined in a [^3H]-histamine dihydrochloride competition binding assay. Cell culture and membrane preparation of Sf9 cells co-expressing hH4R-Gαi2 fusion protein with Gβ1γ2 was prepared as described by Schneider and co-workers.
The competition binding assay has been performed as described previously by Sander, Kottke, and Schwed from the Stark Lab. Cell membranes were sedimented by 3 min centrifugation at 25 °C and […] and were resuspended in binding buffer. Competition binding experiments were carried out by incubating the membranes (40 µg/0.2 mL binding buffer) and [^3H]-histamine dihydrochloride (10 nM) with test compounds for 60 min at r.t. Assays were run in triplicates with four to seven appropriate concentrations between 0.1 nM and 100 µM for the test compound. Nonspecific binding was determined in the presence of 100 µM JNJ7777120. The following steps were performed as described before.

[8] = biological target: T5, human histamine H3 receptor (Homo sapiens, UniProt Q9Y5N1); assay: Radioligand displacement assay at histamine H3 receptor ([3H]-Nα-methylhistamine, HEK293 membranes); type: binding; conditions: HEK293 cells stably expressing human H3R, read-out: Ki [CI 95%] (n), H3R
T5 construct: expressed in transfected cells; host or cells: HEK293
Protocol: Radioligand displacement assays were performed as described previously. HEK293 cells stably expressing the human histamine H3 receptor [37] were grown in Dulbecco’s modified Eagle’s medium, supplemented with 2 mM glutamine, 10 mM HEPES, 10% fetal bovine serum, and 10 μL/mL penicillin/streptomycin in an atmosphere of 5% CO2 at 37 °C. Cells were grown to confluence. The medium was removed, and cells were collected in 15 mL ice-cold phosphate-buffered saline (PBS) (140 mM NaCl, 3 mM KCl, 1.5 mM KH2PO4, 8 mM Na2HPO4, pH 7.4). The cell suspension was centrifuged two times at 3000× g for 10 min with subsequent aspiration in 20 mL of PBS buffer at 4 °C. […]
Competition binding experiments were carried out as follows: membranes (20 μg/well in a final volume of 0.2 mL binding buffer) were incubated with [^3H]-N^α-methylhistamine (2 nM), purchased from PerkinElmer (Waltham, MA, USA), and different concentrations of the respective test ligand. […] Non-specific binding was determined in the presence of the selectively acting histamine H3 receptor inverse agonist/antagonist pitolisant (10 μM). […] Liquid scintillation counting using a PerkinElmer MicroBeta Trilux scintillation counter was used to determine the amount of radioactivity collected on the filter used in the current experiment. […]

[9] = biological target: T6, human D2L (Homo sapiens, UniProt P14416); assay: Radioligand displacement assay at dopamine D2R ([3H]-raclopride, HEK293 cells); type: binding; conditions: HEK293 cells stably expressing human D2R, read-out: Ki ± SD (n), D2R
T6 construct: expressed in transfected cells; host or cells: HEK293
T6 sequence (P14416 whole entry): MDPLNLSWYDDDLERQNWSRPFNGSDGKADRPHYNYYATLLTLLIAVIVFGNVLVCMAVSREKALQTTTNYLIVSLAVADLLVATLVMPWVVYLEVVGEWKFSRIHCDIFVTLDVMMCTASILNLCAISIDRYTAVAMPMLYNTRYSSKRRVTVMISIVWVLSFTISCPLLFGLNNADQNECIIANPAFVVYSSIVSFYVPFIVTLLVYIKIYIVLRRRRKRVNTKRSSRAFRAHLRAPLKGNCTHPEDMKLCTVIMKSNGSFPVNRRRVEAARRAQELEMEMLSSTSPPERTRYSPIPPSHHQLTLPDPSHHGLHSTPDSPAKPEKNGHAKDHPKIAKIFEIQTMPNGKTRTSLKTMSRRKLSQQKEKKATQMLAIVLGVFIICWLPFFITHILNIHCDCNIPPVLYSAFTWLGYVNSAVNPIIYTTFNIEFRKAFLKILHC

T5 sequence (Q9Y5N1 whole entry): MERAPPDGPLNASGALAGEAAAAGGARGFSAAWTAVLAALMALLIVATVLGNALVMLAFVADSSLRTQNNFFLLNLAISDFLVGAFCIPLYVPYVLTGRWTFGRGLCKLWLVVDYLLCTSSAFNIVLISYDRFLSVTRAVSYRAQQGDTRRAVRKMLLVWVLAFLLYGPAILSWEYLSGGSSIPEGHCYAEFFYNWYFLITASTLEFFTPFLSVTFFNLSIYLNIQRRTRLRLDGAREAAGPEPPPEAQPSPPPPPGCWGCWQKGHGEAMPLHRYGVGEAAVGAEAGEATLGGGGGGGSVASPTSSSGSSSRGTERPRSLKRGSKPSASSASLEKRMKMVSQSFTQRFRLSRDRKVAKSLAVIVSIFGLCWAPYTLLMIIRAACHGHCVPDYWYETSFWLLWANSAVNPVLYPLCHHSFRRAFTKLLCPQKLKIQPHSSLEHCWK
T4 sequence (Q9H3N8+P04899 fused): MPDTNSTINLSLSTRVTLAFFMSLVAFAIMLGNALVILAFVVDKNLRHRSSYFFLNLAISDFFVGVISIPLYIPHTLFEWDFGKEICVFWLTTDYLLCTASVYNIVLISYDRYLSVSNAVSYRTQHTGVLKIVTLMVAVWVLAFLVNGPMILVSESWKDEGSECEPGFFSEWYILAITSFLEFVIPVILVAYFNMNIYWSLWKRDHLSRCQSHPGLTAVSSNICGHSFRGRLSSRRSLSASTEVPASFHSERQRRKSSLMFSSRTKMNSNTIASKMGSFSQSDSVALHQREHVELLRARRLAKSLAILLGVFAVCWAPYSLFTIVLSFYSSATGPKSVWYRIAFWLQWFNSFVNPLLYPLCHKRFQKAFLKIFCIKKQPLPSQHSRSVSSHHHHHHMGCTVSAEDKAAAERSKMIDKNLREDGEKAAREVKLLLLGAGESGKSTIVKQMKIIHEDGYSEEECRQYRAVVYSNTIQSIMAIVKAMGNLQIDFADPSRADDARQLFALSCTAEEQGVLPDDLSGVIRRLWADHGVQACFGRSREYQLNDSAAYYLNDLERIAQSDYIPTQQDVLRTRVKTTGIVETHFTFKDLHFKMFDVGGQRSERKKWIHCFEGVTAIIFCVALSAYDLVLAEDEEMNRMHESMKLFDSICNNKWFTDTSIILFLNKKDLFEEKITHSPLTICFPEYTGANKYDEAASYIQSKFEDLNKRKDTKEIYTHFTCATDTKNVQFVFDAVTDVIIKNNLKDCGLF
T2 sequence (P35462 whole entry): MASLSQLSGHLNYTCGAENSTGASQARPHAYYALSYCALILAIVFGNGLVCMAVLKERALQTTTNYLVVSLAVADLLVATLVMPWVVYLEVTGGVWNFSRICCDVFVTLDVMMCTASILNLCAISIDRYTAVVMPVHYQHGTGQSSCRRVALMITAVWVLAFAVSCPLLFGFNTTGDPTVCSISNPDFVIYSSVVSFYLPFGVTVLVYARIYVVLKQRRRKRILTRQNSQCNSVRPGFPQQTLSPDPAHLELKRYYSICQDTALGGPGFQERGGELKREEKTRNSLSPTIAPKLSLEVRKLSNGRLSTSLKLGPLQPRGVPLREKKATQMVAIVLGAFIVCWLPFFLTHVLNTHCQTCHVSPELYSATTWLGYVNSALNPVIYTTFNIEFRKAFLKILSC
T3 sequence (P21728 whole entry): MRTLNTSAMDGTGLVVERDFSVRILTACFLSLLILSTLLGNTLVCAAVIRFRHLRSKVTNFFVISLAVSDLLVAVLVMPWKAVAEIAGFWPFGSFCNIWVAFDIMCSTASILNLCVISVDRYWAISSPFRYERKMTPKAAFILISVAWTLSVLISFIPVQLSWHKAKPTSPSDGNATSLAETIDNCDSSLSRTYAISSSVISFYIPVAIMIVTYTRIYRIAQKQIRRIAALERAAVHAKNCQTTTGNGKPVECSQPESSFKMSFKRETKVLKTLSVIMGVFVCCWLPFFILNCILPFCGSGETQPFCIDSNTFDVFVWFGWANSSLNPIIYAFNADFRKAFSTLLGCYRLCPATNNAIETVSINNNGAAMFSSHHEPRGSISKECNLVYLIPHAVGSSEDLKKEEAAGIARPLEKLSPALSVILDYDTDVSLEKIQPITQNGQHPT
T1 sequence (P35367 whole entry): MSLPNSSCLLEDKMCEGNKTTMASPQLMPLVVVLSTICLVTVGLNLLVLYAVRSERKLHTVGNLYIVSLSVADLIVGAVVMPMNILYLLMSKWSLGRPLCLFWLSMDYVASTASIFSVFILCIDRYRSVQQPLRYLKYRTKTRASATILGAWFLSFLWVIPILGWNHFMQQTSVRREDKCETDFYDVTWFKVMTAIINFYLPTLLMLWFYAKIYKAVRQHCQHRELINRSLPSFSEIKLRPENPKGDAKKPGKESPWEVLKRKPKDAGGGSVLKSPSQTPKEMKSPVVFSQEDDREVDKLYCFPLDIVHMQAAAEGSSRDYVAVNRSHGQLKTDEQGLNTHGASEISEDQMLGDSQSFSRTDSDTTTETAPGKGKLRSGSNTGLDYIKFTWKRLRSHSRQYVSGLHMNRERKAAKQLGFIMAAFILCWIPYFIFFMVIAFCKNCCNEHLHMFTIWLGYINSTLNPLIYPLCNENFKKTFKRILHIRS

| SMILES | inhibition at 10 µM, D3R [1] | inhibition at 10 µM, D1R [2] | inhibition at 10 µM, H1R [3] | Ki [4] [nM] | Ki [5] [nM] | Ki [6] [nM] | Ki [7] [nM] | Ki [8] | Ki [9] [nM] |
| --- | --- | --- | --- | --- | --- | --- | --- | --- | --- |
| CC(C)COc1ccc(CNC(=O)N(Cc2ccc(F)cc2)C2CCN(C)CC2)cc1 [Pimavanserin, reference compound] | inhibition at 10 µM: 60% ^a | inhibition at 10 µM: <50% ^a | inhibition at 10 µM: <50% ^a | – | – | – | – | – | – |
| CN1CCC(N(Cc2ccc(F)cc2)C(=O)NCc2ccc(OCCCN3CCCCC3)cc2)CC1 [ST-2300, 1-(4-Fluorobenzyl)-1-(1-methylpiperidin-4-yl)-3-{4-[3-(piperidin-1-yl)propoxy]benzyl}urea] | – | – | – | > 5000 | > 10000 | > 10000 | > 1000 | 14 nM and 14.4 nM | > 10000 |
